Reference: ChEMBL document CHEMBL4376865, “Discovery and Characterization of 1H-1,2,3-Triazole Derivatives as Novel Prostanoid EP4 Receptor Antagonists for Cancer Immunotherapy” (J Med Chem, 2020)

Legend:
[1] = biological target: Prostaglandin E2 receptor EP4 subtype (Mus musculus, UniProt P32240); assay: Antagonist activity at mouse EP4 expressed in CHO cells coexpressing G16-alpha assessed as intracellular calcium flux preincubated for 15 mins followed by addition of PGE2 by calcium flux assay; format: functional, cell-based
Prostaglandin E2 receptor EP4 subtype (Mus musculus, UniProt P32240), sequence (P32240 whole entry): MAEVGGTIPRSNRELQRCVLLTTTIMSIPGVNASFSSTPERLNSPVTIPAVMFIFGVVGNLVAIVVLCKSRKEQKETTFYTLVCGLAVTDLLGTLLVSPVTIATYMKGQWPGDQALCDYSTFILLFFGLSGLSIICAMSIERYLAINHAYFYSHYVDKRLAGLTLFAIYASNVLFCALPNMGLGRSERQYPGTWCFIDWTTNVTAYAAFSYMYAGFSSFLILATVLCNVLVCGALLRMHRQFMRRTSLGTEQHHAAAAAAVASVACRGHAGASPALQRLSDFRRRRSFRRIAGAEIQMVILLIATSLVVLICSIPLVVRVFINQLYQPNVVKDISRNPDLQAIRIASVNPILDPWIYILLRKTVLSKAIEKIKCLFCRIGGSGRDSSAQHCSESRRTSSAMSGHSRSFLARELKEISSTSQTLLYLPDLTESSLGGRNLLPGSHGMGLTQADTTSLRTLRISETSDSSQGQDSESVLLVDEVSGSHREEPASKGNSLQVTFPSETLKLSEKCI

[2] = Metabolic stability in human liver microsomes assessed as compound remaining at 10 uM incubated for 1 hr
[3] = Metabolic stability in CD1 mouse liver microsomes assessed as compound remaining at 10 uM incubated for 1 hr
CYP1A2 = biological target: T1, CYP1A2 (Homo sapiens, UniProt P05177); assay: Inhibition of CYP1A2 in human liver microsomes at 20 uM using phenacetin as substrate incubated for 30 mins by HPLC analysis relative to control; format: ADME; settings: probe phenacetin
T1 sequence (P05177 whole entry): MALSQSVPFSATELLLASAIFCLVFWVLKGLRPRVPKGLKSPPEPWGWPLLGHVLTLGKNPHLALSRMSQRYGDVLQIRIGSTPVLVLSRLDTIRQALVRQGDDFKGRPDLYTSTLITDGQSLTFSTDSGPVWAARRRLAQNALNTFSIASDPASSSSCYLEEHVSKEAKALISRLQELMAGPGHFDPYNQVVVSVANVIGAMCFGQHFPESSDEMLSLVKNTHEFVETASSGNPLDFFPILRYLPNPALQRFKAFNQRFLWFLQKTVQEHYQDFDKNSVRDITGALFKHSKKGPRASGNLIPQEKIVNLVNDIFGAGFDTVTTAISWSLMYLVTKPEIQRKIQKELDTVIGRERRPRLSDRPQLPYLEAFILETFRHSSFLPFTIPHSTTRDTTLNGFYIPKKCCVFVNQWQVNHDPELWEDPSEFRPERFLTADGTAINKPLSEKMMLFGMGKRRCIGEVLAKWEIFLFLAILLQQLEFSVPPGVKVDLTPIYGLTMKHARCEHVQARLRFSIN

CYP2B6 = biological target: T2, CYP2B6 (Homo sapiens, UniProt P20813); assay: Inhibition of CYP2B6 in human liver microsomes at 20 uM incubated for 60 mins by HPLC analysis relative to control; format: ADME
T2 sequence (P20813 whole entry): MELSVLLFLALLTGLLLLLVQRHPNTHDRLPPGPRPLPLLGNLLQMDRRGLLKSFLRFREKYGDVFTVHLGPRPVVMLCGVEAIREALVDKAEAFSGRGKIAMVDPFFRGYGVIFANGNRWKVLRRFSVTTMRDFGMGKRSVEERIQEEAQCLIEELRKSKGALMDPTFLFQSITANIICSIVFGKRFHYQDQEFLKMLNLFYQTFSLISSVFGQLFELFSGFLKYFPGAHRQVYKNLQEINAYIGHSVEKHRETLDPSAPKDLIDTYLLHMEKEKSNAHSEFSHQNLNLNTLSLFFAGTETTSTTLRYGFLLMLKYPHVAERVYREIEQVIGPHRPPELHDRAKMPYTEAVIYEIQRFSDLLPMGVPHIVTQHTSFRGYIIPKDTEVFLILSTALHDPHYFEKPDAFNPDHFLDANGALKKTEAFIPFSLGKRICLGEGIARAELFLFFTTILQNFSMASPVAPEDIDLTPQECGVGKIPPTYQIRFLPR

CYP2C9 = CYP2C9 (Homo sapiens, UniProt P11712); assay: Inhibition of CYP2C9 in human liver microsomes at 20 uM using tolbutamide as substrate incubated for 60 mins by HPLC analysis relative to control; format: ADME; settings: probe tolbutamide
CYP2C9, sequence (P11712 whole entry): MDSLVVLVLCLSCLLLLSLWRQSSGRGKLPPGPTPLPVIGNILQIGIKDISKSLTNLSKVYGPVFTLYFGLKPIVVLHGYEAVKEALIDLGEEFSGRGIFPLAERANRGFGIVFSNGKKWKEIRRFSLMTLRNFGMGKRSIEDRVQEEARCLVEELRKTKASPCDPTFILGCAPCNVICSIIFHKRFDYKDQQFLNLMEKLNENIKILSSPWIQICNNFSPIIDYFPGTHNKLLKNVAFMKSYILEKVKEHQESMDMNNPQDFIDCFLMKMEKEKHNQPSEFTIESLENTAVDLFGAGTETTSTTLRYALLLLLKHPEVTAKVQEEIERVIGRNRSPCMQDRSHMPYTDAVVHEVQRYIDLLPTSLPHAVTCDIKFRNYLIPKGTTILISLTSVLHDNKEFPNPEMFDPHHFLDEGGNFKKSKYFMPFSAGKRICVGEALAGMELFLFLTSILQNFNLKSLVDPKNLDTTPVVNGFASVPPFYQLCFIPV

Cytochrome P450 3A4 = Cytochrome P450 3A4 (Homo sapiens, UniProt P08684); assay: Inhibition of CYP3A4 in human liver microsomes at 20 uM using testosterone as substrate incubated for 60 mins by HPLC analysis; format: ADME; settings: 1 h
Cytochrome P450 3A4, sequence (P08684 whole entry): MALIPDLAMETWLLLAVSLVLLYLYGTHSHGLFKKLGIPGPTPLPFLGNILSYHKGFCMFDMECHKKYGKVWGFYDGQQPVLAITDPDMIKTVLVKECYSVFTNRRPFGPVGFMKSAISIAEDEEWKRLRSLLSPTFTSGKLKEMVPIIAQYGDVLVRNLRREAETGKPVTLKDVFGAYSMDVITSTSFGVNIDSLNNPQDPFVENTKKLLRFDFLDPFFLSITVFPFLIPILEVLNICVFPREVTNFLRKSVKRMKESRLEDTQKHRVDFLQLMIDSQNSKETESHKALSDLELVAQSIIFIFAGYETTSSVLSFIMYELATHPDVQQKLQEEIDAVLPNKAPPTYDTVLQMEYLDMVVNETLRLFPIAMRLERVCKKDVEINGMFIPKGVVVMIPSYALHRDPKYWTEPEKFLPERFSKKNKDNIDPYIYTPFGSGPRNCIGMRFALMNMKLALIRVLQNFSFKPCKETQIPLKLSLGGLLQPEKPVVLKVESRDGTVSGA

[4] = Clearance in BALB/c mouse at 1 mg/kg, iv measured upto 24 hrs by LC-MS/MS analysis; settings: in vivo
[5] = Half life in BALB/c mouse at 1 mg/kg, iv measured upto 24 hrs by LC-MS/MS analysis; settings: in vivo
[6] = biological target: T3, Prostaglandin E2 receptor EP4 subtype (Homo sapiens, UniProt P35408); assay: Inhibition of human EP4 transfected in human HEK293 cells assessed as reduction in PGE2-induced cAMP level incubated for 15 mins followed by PGE2 stimulation and measured every 2 mins for 30 mins by GloSensor cAMP Assay
T3 sequence (P35408 whole entry): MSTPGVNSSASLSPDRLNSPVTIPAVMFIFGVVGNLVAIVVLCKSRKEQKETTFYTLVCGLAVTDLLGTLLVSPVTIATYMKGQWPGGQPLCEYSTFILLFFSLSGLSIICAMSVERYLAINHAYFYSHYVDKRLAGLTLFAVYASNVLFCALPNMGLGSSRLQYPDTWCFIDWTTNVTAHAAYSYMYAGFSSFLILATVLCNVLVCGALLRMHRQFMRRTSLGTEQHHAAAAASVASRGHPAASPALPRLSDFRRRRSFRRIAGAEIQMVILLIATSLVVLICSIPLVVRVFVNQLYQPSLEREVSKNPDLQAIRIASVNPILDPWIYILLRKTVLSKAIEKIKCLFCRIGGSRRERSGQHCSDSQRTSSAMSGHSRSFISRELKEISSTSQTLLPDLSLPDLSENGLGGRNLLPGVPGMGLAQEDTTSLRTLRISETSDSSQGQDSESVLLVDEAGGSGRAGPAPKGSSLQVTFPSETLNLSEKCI

CT26 [7] = assay: Antitumor activity against mouse CT26 cells xenografted in BALB/c mouse assessed as tumor growth inhibition at 16 mg/kg, po administerd daily and measured after two weeks; settings: 336 h, read-out: TGI
CT26 [8] = assay: Antitumor activity against mouse CT26 cells xenografted in BALB/c mouse assessed as tumor growth inhibition at 50 mg/kg, po administerd daily and measured after two weeks; settings: 336 h, read-out: TGI
CT26 [9] = assay: Antitumor activity against mouse CT26 cells xenografted in BALB/c mouse assessed as tumor growth inhibition at 150 mg/kg, po administerd daily and measured after two weeks; settings: 336 h, read-out: TGI
[10] = Half life in BALB/c mouse at 5 mg/kg, po measured upto 24 hrs by LC-MS/MS analysis; settings: in vivo
[11] = biological target: T3, Prostaglandin E2 receptor EP4 subtype
Description: Antagonist activity at human EP4 expressed in CHO cells coexpressing G16-alpha assessed as intracellular calcium flux preincubated for 15 mins followed by addition of PGE2 by calcium flux assay

[12] = biological target: Prostaglandin E2 receptor EP2 subtype (Homo sapiens, UniProt P43116)
Prostaglandin E2 receptor EP2 subtype, sequence (P43116 whole entry): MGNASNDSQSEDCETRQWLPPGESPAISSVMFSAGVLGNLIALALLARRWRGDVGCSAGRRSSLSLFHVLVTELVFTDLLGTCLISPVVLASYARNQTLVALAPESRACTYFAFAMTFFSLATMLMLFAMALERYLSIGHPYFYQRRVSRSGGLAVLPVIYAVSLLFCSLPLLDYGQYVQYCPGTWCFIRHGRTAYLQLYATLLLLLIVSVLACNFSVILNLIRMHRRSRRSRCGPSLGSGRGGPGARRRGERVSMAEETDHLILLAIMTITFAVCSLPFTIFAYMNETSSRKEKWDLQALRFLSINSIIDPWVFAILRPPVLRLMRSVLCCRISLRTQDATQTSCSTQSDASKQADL
Description: Antagonist activity at human EP2 expressed in CHO cells coexpressing G16-alpha assessed as intracellular calcium flux preincubated for 15 mins followed by addition of PGE2 by calcium flux assay

[13] = biological target: T4, Prostaglandin E2 receptor EP3 subtype (Homo sapiens, UniProt P43115)
T4 sequence (P43115 whole entry): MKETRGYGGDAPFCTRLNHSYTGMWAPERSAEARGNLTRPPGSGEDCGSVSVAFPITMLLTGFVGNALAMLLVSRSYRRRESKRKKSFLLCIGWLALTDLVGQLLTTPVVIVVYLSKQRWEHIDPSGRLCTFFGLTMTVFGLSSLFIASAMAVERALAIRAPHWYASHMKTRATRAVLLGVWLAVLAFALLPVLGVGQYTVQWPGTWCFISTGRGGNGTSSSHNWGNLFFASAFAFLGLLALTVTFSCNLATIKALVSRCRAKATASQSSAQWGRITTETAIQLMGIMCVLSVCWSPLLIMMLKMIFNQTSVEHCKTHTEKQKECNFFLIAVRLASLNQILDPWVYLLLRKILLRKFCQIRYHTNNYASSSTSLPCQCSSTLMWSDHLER
Description: Antagonist activity at human EP3 expressed in CHO cells coexpressing G16-alpha assessed as intracellular calcium flux preincubated for 15 mins followed by addition of PGE2 by calcium flux assay

in vivo [14] = settings: BALB/c, mouse, iv, 1 mg/kg
in vivo [15] = settings: BALB/c, mouse, iv, 1 mg/kg; remark: listed apart in the source
in vivo [16] = settings: BALB/c, mouse, po, 5 mg/kg
Description: AUC (0 to infinity) in BALB/c mouse at 5 mg/kg, po measured upto 24 hrs by LC-MS/MS analysis

in vivo [17] = settings: BALB/c, mouse, po, 5 mg/kg; remark: listed apart in the source
Description: Oral bioavailability in BALB/c mouse at 5 mg/kg measured upto 24 hrs by LC-MS/MS analysis

in vitro [18] = settings: human, liver microsomes
in vitro [19] = settings: human, liver microsomes; remark: listed apart in the source
in vitro [20] = settings: CD1, mouse, liver microsomes
in vitro [21] = settings: CD1, mouse, liver microsomes; remark: listed apart in the source

IC50 [1]: 16.2 nM | remaining at 1 h, 10 µM [2]: 100% | remaining at 1 h, 10 µM [3]: 82% | inhibition at 0.5 h, 20 µM (CYP1A2): 27% | inhibition at 1 h, 20 µM (CYP2B6): 26% | inhibition at 1 h, 20 µM (CYP2C9): 33% | inhibition (INH) (Cytochrome P450 3A4): Not Active | clearance at 24 h [4]: 28.3 mL/min/kg | half-life at 24 h [5]: 4.1 h | IC50 [6]: 18.7 nM | Kb [6]: 5.62 nM | half-life at 24 h [10]: 4.7 h | IC50 [11]: 6.1 nM | IC50 [12]: > 10000 nM | IC50 [13]: > 10000 nM | Cmax at 24 h (in vivo [14]): 1200 ng/mL | AUC(0-inf) at 24 h (in vivo [15]): 575 ng·h/mL | AUC(0-inf) at 24 h (in vivo [16]): 1240 ng·h/mL | bioavailability at 24 h (in vivo [17]): 48% | half-life at 1 h, 10 µM (in vitro [18]): > 2.42 h | microsomal CLint at 1 h, 10 µM (in vitro [19]): < 9.6 µL/min/mg | half-life at 1 h, 10 µM (in vitro [20]): > 2.42 h | microsomal CLint at 1 h, 10 µM (in vitro [21]): < 9.6 µL/min/mg
SMILES: C/C=C/c1nnn(Cc2ccc(C(F)(F)F)cc2)c1C(=O)N[C@@H](C)c1ccc(C(=O)O)cc1
inhibition in vivo at 16 mg/kg (CT26 [7]): 24.6% | inhibition in vivo at 50 mg/kg (CT26 [8]): 54.7% | inhibition in vivo at 150 mg/kg (CT26 [9]): 63.8%
